Measurements from patent US10624880B2, “Predicting response to alvocidib by mitochondrial profiling” (Tolero Pharmaceuticals, Inc., priority 2015, dated 2020).

Assays:
[1] = test system: MCL-1 mRNA in MV-4-11 cells; assay: RT-PCR of MCL-1 mRNA in MV-4-11 cells; type: cell-based
Method: An AML cell line, MV-4-11, expresses MCL-1. MCL-1 is a key anti-apoptotic protein in MV-4-11 cells. Alvocidib, a CDK9 inhibitor, lowers the expression of MCL-1 mRNA, which is already well documented in the literature. […] MV-4-11 cells were treated with alvocidib for 2 hrs in vitro. Following treatment, cells were harvested and prepared using a standard real time PCR (RT-PCR) assay for detection of MCL-1 mRNA to probe for changes relative to controls.
The relative expression of MCL-1 mRNA was measured at 0.5-16 hour time points after dosing with 100 nM of alvocidib.
Following treatment, cells were harvested and prepared using standard RT-PCR assay for detection of MCL-1 mRNA expression.

[2] = test system: MCL-1, Bcl-xL, and Bcl-2 in MV-4-11 cells; assay: Immunoblotting of MCL-1, Bcl-xL, Bcl-2 in MV-4-11 cells; type: cell-based
Method: The dose dependence is observed by monitoring the relative expression of MCL-1 compared to β-actin when cells are dosed with alvocidib at concentrations of 0-8 μM. MV4-11 cells were treated with alvocidib for 2 hrs in vitro. Following treatment, cells were harvested and prepared using standard immunoblotting techniques for detection of MCL-1 to probe for changes relative to β-actin.
The time dependence is observed by monitoring the relative expression of MCL-1, Bcl-xL, and Bcl-2 compared β-actin over time. The relative expression of MCL-1, Bcl-xL, and Bcl-2 was measured at 1-96 hour time points after dosing with 80 nM of alvocidib.
Following treatment, cells were harvested and prepared using standard immunoblotting techniques for detection of MCL-1, Bcl-xL, and Bcl-2 expression.

[3] = test system: MCL-1, Bcl-xL, and Bcl-2 in A549 cells; assay: Immunoblotting of MCL-1, Bcl-xL, Bcl-2 in A549 cells; type: cell-based, human; conditions: A549, 350 nM
Method: The relative expression of MCL-1, Bcl-xL, and Bcl-2 was measured at 0-96 hour time points after dosing with 350 nM of alvocidib. In one group, after 24 hours of treatment, media was removed and replaced with fresh media […] (i.e., a wash step; see FIG. 9A).
A549 cells were treated with 350 nM alvocidib in vitro for the times indicated in FIG. 9A-B. Following treatment (and wash step as applicable), cells were harvested and prepared using standard immunoblotting techniques for detection of MCL-1, Bcl-xL, and Bcl-2 expression.
The relative expression of MCL-1, Bcl-xL, and Bcl-2 was measured at 0-96 hour time points after dosing with 350 nM of alvocidib.
Cells were treated 3 times (three 24 hour periods, broken by two 24 hour breaks) with 350 nM alvocidib in vitro. Following treatment, cells were harvested and prepared using standard immunoblotting techniques for detection of MCL-1, Bcl-xL, and Bcl-2 expression.

MV-4-11 cells = assay: 24 hour EC50 in MV-4-11 cells; type: cell-based; conditions: Homo sapiens, MV4-11, read-out: 24 hour EC 50
Text: (§1) Following the treatment, cells were harvested and prepared using standard immunoblotting techniques for detection of MCL-1.

MCL-1 in MV-4-11 cells = assay: MCL-1 immunoblotting in the ACM (or FLAM) regimen modeled in vitro; type: cell-based
Text: as §1

N-Myc in SK-N-AS cells = assay: Immunoblotting of N-Myc in SK-N-AS cells; type: cell-based, human; conditions: 300 nM, 1-24 hour, FIG. 11
Method: The SK-N-AS cell line is a human neuroblastoma cell line that expresses N-Myc, which is a key oncogenic protein. […] The time dependence is observed by monitoring the relative expression of N-Myc compared β-actin over time. The relative expression of N-Myc was measured at 1-24 hour time points after dosing with 300 nM of alvocidib.
Following treatment, cells were harvested and prepared using standard immunoblotting techniques for detection of N-Myc expression.

MCL-1 mRNA in A549 cells = assay: RT-PCR of MCL-1 mRNA in A549 cells; type: cell-based, human; conditions: A549, alvocidib 0-8 μM, 2 hrs, FIG. 8
Method: The A549 cell line is a human adenocarcinoma cell line, which expresses MCL-1. […] A549 cells were treated with alvocidib for 2 hrs in vitro. Following treatment, cells were harvested and prepared using a standard RT-PCR assay for detection of MCL-1 mRNA to probe for changes relative to controls.

[4] = test system: MCL-1, Bcl-xL, and Bcl-2 in Panc-1 cells; assay: Immunoblotting of MCL-1, Bcl-xL, Bcl-2 in Panc-1 cells; type: cell-based, human; conditions: Panc-1, 730 nM
Method: The time dependence is observed by monitoring the relative expression of MCL-1, Bcl-xL, and Bcl-2 compared β-actin over time. The relative expression of MCL-1, Bcl-xL, and Bcl-2 was measured at 0-96 hour time points after dosing with 730 nM of alvocidib. In one group, after 24 hours of treatment, media was removed and replaced with fresh media containing 730 nM alvocidib (i.e., a wash step; see FIG. 13A). Panc-1 cells were treated with 730 nM alvocidib in vitro for the times indicated in FIG. 13A-B. Following treatment (and wash step as applicable), cells were harvested and prepared using standard immunoblotting techniques for detection of MCL-1, Bcl-xL, and Bcl-2 expression. […] The time dependence is observed by monitoring the relative expression of MCL-1, Bcl-xL, and Bcl-2 compared β-actin over time. The relative expression of MCL-1, Bcl-xL, and Bcl-2 was measured at 0-96 hour time points after dosing with 730 nM of alvocidib. Cells were treated 3 times (three 24 hour periods, broken by two 24 hour breaks) with 730 nM alvocidib in vitro. Following treatment, cells were harvested and prepared using standard immunoblotting techniques for detection of MCL-1, Bcl-xL, and Bcl-2 expression.

[5] = test system: MCL-1, Bcl-xL, and Bcl-2 in Yugen8 cells; assay: Immunoblotting of MCL-1, Bcl-xL, Bcl-2 in Yugen8 cells; type: cell-based; conditions: Yugen8, 280 nM
Method: The time dependence is observed by monitoring the relative expression of MCL-1, Bcl-xL, and Bcl-2 compared β-actin over time. The relative expression of MCL-1, Bcl-xL, and Bcl-2 was measured at 0-96 hour time points after dosing with 280 nM of alvocidib. In one group, after 24 hours of treatment, media was removed and replaced with fresh media containing 280 nM alvocidib (i.e., a wash step; see FIG. 15A). Yugen8 cells were treated with 280 nM alvocidib in vitro for the times indicated in FIG. 15A-B. Following treatment (and wash step as applicable), cells were harvested and prepared using standard immunoblotting techniques for detection of MCL-1, Bcl-xL, and Bcl-2 expression. […] The time dependence is observed by monitoring the relative expression of MCL-1, Bcl-xL, and Bcl-2 compared β-actin over time. The relative expression of MCL-1, Bcl-xL, and Bcl-2 was measured at 0-96 hour time points after dosing with 280 nM of alvocidib. Cells were treated 3 times (three 24 hour periods, broken by two 24 hour breaks) with 280 nM alvocidib in vitro. Following treatment, cells were harvested and prepared using standard immunoblotting techniques for detection of MCL-1, Bcl-xL, and Bcl-2 expression.

Row | SMILES | time post-treatment at which MCL-1 mRNA expression was reduced ([1]; MV-4-11, 100 nM) | relative expression of MCL-1 mRNA compared controls over time ([1]; MV-4-11, 100 nM, 0.5-16 hour, FIG. 7B) | relative expression of MCL-1 mRNA compared to controls ([1]; MV-4-11, alvocidib 0-8 μM, 2 hrs, FIG. 7A) | relative expression of MCL-1, Bcl-xL, and Bcl-2 compared β-actin over time ([2]; MV-4-11, 80 nM, 1-96 hour, FIG. 10B) | relative expression of MCL-1 compared to β-actin ([2]; MV-4-11, alvocidib 0-8 μM, 2 hrs, FIG. 10A) | relative expression of MCL-1, Bcl-xL, and Bcl-2 compared β-actin over time ([3]; 0-96 hour, with and without wash step, FIG. 9A-B) | relative expression of MCL-1, Bcl-xL, and Bcl-2 compared β-actin over time ([3]; repeat dosing (three 24 hour periods, two 24 hour breaks), FIG. 12) | EC50 (MV-4-11 cells) | relative expression of MCL-1 compared to β-actin (MCL-1 in MV-4-11 cells; MV-4-11, each treatment dosed at its 24 hour EC50, FIG. 17B) | expression of MCL-1 over the course of the ACM (or FLAM) regimen (MCL-1 in MV-4-11 cells; modeled in vitro, MV-4-11, FIG. 17A) | relative expression of N-Myc compared β-actin over time (N-Myc in SK-N-AS cells) | relative expression of MCL-1 mRNA compared to controls (MCL-1 mRNA in A549 cells) | relative expression of MCL-1, Bcl-xL, and Bcl-2 compared β-actin over time ([4]; 0-96 hour, with and without wash step, FIG. 13A-B) | relative expression of MCL-1, Bcl-xL, and Bcl-2 compared β-actin over time ([4]; repeat dosing regimen, FIG. 14) | relative expression of MCL-1, Bcl-xL, and Bcl-2 compared β-actin over time ([5]; 0-96 hour, with and without wash step, FIG. 15A-B) | relative expression of MCL-1, Bcl-xL, and Bcl-2 compared β-actin over time ([5]; repeat dosing regimen, FIG. 16)
1 | CN1CC[C@H](c2c(O)cc(O)c3c(=O)cc(-c4ccccc4Cl)oc23)[C@H](O)C1 [alvocidib] | ≤ 30 min | down-regulates MCL-1 mRNA in MV-4-11 in a time-dependent manner | down-regulates MCL-1 mRNA in MV-4-11 cells in a dose dependent manner | down-regulates MCL-1 in MV-4-11 in a time-dependent manner | down-regulates MCL-1 in MV-4-11 cells in a dose dependent manner | down-regulates MCL-1 in A549 in a time-dependent manner | down-regulates MCL-1 in A549 cells in a time-dependent manner | 80 nM | lower the expression of MCL-1 | represses super enhancer complex regulated genes, including expression of MCL-1 | down-regulates N-Myc in SK-N-AS cells in a time-dependent manner | down-regulates MCL-1 mRNA in A549 cells in a dose dependent manner | down-regulates MCL-1 in Panc-1 cells in a time dependent manner | down-regulates MCL-1 in Panc-1 cells in a time-dependent manner | down-regulates MCL-1 in Yugen8 cells in a time dependent manner | down-regulates MCL-1 in Yugen8 in a time-dependent manner
2 | CC(=O)c1c(C)c2cnc(Nc3ccc(N4CCNCC4)cn3)nc2n(C2CCCC2)c1=O [palbociclib] |  |  |  |  |  |  |  | 1000 nM |  |  |  |  |  |  |  | 
